Reference: article PMC8196714, “Design, Radiosynthesis and Preliminary Biological Evaluation in Mice of a Brain-Penetrant ^18F-Labelled σ2 Receptor Ligand” (International Journal of Molecular Sciences, 2021)

Legend:
guinea pig σ1 receptors = guinea pig σ1 receptors (Cavia porcellus, UniProt Q60492); assay: σ1 receptor affinity, competitive binding with [3H]-(+)-pentazocine (WWU); settings: determined at WWU
From the text: To decide which of the nine compounds would be suitable for subsequent radiofluorination, we determined the affinity towards the σ1 receptor as the most relevant off-target protein. […] To finally select the best derivative for radiofluorination, we calculated the σ2:σ1 selectivity values and identified RM273 (41) as the most suitable one with a ratio of about 400.

σ2 receptor [1] = target: T1, σ2 receptor (Rattus norvegicus, UniProt Q5U3Y7); assay: σ2 receptor affinity, inhibition of [3H]DTG binding in rat liver membrane homogenates; set-up: preparations of membrane homogenates obtained from rat liver; from tissue; host or cells: rat liver; settings: for Ki: [3H]DTG, rat liver membrane homogenates
T1 sequence (Q5U3Y7 1-176): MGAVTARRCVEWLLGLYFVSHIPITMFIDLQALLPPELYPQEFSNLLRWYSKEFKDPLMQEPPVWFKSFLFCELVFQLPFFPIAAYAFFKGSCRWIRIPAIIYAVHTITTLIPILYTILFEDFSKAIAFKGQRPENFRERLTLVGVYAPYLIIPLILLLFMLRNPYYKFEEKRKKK
Experimental: Initially, we assessed the affinity of all derivatives towards the target protein and investigated the inhibition of the binding of [^3H]DTG in preparations of membrane homogenates obtained from rat liver, which is known to express high levels of σ2 receptors.
(§1) Binding affinity experiments to assess the Ki values of test compounds towards rat σ2 receptors, human σ1 receptors, and rat VAChT were performed according to protocols previously published by our group. The same protocol was used to determine the KD and Bmax values of RM273 towards σ2 receptors expressed in F98 cells by homologous competition analyzing the displacement of [^18F]RM273 by RM273.

rat VAChT = target: T2, rat VAChT (Rattus norvegicus, UniProt Q62666); assay: Displacement of [3H]vesamicol in membrane homogenates of PC12 cells stably expressing rat VAChT; format: binding
T2 construct: expressed in transfected cells; host or cells: PC12 cells
T2 sequence (Q62666 1-530): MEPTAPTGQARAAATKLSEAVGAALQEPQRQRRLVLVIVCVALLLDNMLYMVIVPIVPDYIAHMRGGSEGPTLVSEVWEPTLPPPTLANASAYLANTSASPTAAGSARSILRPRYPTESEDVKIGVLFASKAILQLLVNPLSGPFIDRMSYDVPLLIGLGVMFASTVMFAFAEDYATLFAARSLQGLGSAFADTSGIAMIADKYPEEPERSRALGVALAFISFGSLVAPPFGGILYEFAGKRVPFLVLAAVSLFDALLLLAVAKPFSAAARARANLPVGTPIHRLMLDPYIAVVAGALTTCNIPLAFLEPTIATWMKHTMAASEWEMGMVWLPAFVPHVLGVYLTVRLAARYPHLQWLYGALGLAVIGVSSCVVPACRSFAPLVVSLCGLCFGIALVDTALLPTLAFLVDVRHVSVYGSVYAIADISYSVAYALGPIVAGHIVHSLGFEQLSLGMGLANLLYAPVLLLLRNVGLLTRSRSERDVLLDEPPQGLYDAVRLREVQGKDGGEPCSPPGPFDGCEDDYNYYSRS
Experimental: Because ligands targeting σ receptors may be impaired by off-target binding towards the vesicular acetylcholine transporter (VAChT), we determined in the next step the affinity of RM273 towards this protein.
as §1

σ2 receptor [2] = target: T1, σ2 receptor; assay: In vitro autoradiography on rat brain cryosections (healthy and orthotopic F98 glioblastoma); format: binding; set-up: from tissue; host or cells: rat brain cryosections (SPRD healthy; Fisher F344 with orthotopic F98 glioblastoma); settings: autoradiography, co-incubation with competitor at 10^−6 M
From the text: Initially, we investigated the binding of [^18F]RM273 on rat brain slices by autoradiography to compare the distribution pattern with that of established σ2 receptor ligands and to examine the target specificity. The highest binding was found in the cortical areas and hippocampal structures. […] Accordingly, we proceeded to investigate, in a rat glioblastoma model, the potential suitability of [^18F]RM273 for molecular characterization of cancer. At first, homologous competition studies using membrane homogenates of the rat glioma cell line F98 were performed to determine the σ2 receptor binding parameters of [^18F]RM273 cells (Figure 3).
We subsequently investigated the binding parameters of [^18F]RM273 by in vitro autoradiography using cryosections of rat brains obtained three weeks after stereotactic implantation of F98 rat glioblastoma cells into the left striatum. Initially, we performed a homologous displacement study to directly compare the binding sites of the new radioligand in a healthy brain and a brain tumor. The inhibition curves presented in Figure 3 indicate binding of [^18F]RM273 to single binding sites in both brain regions. […] Further supporting the assumption of a tumor-specific overexpression of σ2 receptors, a remarkably high density of binding sites of [^18F]RM273 in the F98 tumor tissue was observed (Figure 4). Compared to the healthy tissue (contralateral side), about three times more specific binding sites of [^18F]RM273 were estimated for the tumor region (32 × 10^−9 mol/L vs. 94 × 10^−9 mol/L at 1.5 nM [^18F]RM273).
In vitro autoradiography was performed using cryosections of brains of a healthy rat (SPRD, female, 250 g; Medizinisch-Experimentelles Zentrum, Universität Leipzig, Leipzig, Germany) and brains obtained from rats (Fisher F344/HanZtmRj, male, ≈260 g; Janvier Labs, Le Genest-Saint-Isle, France) 23 days after stereotactic implantation of 5 × 10^4 F98 cells in the […] striatum (n = 2).
Immediately after isolation, the brains were frozen by immersion in isopentane at −25 °C. Cryosections of 12 μm (Microm HM560 cryostat, Thermo Scientific, Schwerte, Germany) were mounted on microscopic glass slides, dried at room temperature, and stored at −25 °C. For the experiment, the slices were dried at room temperature under a stream of cold air before pre-incubation in PBS, pH 7.4, at room temperature for 15 min. […] Co-incubation with serial dilutions of RM273 (10^−10–10^−6 M) was performed to determine an inhibition curve. After 60 min, the incubation at room temperature was terminated by decanting and washing the slides by two consecutive incubations in ice-cold washing buffer (50 mM TRIS-HCl, pH 7.4 at 4 °C) for two min each, followed by dipping in ice-cold demineralized water for 5 sec and drying under a stream of cold air. In parallel, for subsequent quantification of the data obtained from the homologous competition experiment, defined volumes, and thus defined activities of the radioligand solution, were pipetted onto a microscopic glass slide (0.5–3 μL = 0.0355–0.213 kBq) and dried. Afterwards the tissue samples along with the standards were exposed to an ^18F-sensitive phosphor screen (ABC) for two hours. Image acquisition was performed using a phosphorimager (HD-CR 35; DÜRR NDT GmbH & Co. KG, Bietigheim-Bissingen, Germany). Analysis of the digitized images was performed by image analysis software (AIDA; Elysia-raytest GmbH, Straubenhardt, Germany).
Irregular regions of interest (ROI) were drawn on the standard spots and the different brain regions, which were confirmed by Nissl staining of the identical brain sections. Optical density measured in each ROI was expressed as quantum levels per unit area (QL/pixel) with a pixel size of 12.5 μm^2. From the calibration curve obtained from the standards by plotting QL vs. activity, the QL values of the ROIs were converted to activity values followed by conversion to chemical concentration of RM273 based on the molar activity of [^18F]RM273. […]

human σ1 receptors = human σ1 receptors (Homo sapiens, UniProt Q99720); assay: σ1 receptor affinity, competitive binding with [3H]-(+)-pentazocine (HZDR Leipzig); settings: determined at HZDR Leipzig
Chain of human σ1 receptors (Q99720 whole entry): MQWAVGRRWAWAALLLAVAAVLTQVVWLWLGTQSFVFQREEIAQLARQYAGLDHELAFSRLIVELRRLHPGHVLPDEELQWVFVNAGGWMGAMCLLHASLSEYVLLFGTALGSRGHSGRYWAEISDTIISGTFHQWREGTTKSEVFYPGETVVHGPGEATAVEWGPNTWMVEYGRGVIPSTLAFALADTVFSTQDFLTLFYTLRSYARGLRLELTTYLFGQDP
Experimental: To decide which of the nine compounds would be suitable for subsequent radiofluorination, we determined the affinity towards the σ1 receptor as the most relevant off-target protein.
as §1

[3] = set-up: method as in PMID 17579383; settings: 5 min p.i. ref 25; cited from earlier work
[4] = Ki σ1 from guinea pig σ1 receptors

Chain of guinea pig σ1 receptors (Q60492 whole entry): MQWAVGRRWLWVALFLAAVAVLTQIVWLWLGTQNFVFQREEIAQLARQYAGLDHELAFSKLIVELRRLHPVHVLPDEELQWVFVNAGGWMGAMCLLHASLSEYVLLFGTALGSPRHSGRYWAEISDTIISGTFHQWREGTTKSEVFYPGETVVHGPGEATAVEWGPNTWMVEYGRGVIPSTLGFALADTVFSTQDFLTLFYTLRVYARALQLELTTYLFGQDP

Ki (guinea pig σ1 receptors) [nM]	Selectivity (Ki σ1/Ki σ2) (σ2 receptor [1]; [4])	Ki (σ2 receptor [1]) [nM]	Selectivity (Ki σ1/Ki σ2) (σ2 receptor [1]; Ki σ1 from human σ1 receptors)	Ki (human σ1 receptors) [nM]	Compound	further results
691	432	1.6			COc1cc2c(cc1OC)CN(CCCCn1ccc3ccc(F)nc31)CC2 [41 (RM273), 2-(4-(6-Fluoro-1H-pyrrolo[2,3-b]pyridin-1-yl)butyl)-6,7-dimethoxy-1,2,3,4-tetrahydroisoquinoline]	Selectivity (Ki σ1/Ki σ2) (σ2 receptor [1]; Ki σ1 from guinea pig σ1 receptors, listed as RM273 (41)): about 400; Ki (rat VAChT): > 2000 nM
					Fc1ccc(-n2cc(CCCCN3CCC4(CC3)OCc3ccccc34)c3ccccc32)cc1 [Siramesine, siramesine, reference compound]	displacement of [18F]RM273 binding on rat brain slices (σ2 receptor [2]): completely displaceable
		10	8	80	COc1cc2c(cc1OC)CN(CCCCn1ccc3cccc(F)c31)CC2 [Compound 37, 2-(4-(7-Fluoro-1H-indol-1-yl)butyl)-6,7-dimethoxy-1,2,3,4-tetrahydroisoquinoline]	
					COc1cccc2c1CCCC2CCCN1CCN(C2CCCCC2)CC1 (centres unmarked) [PB28, reference compound]	displacement of [18F]RM273 binding on rat brain slices (σ2 receptor [2]): completely displaceable
					COc1cc2c(cc1OC)CN(CCCCNC(=O)c1cc(C)ccc1OCC[18F])CC2 [[^18F]ISO-I]	brain uptake [3]: 0.76 % ID/g
85	85	1			COc1cc2c(cc1OC)CN(CCCCn1ccc3cc(F)ncc31)CC2 [Compound 40, 2-[4-(5-Fluor-1H-pyrrolo[2,3-c]pyridin-1-yl)butyl]-6,7-dimethoxy-1,2,3,4-tetrahydroisochinolin]	
		12	9.7	116	COc1cc2c(cc1OC)CN(CCCCn1ccc3cc(F)ccc31)CC2 [Compound 35, 2-(4-(5-Fluoro-1H-indol-1-yl)butyl)-6,7-dimethoxy-1,2,3,4-tetrahydroisoquinoline]	
		14	1.5	21	COc1cc2c(cc1OC)CN(CCCCn1ccc3c(F)cccc31)CC2 [Compound 34, 2-[4-(4-Fluoro-1H-indol-1-yl)butyl]-6,7-dimethoxy-1,2,3,4-tetrahydroisoquinoline]	
		7.1	6.5	46	COc1cc2c(cc1OC)CN(CCCCn1ccc3ccc(F)cc31)CC2 [Compound 36, 2-(4-(6-Fluoro-1H-indol-1-yl)butyl)-6,7-dimethoxy-1,2,3,4-tetrahydroisoquinoline]	
916	339	2.7			COc1cc2c(cc1OC)CN(CCCCn1ccc3ccnc(F)c31)CC2 [42 (RM297), 2-[4-(7-Fluor-1H-pyrrolo[2,3-c]pyridin-1-yl)butyl]-6,7-dimethoxy-1,2,3,4-tetrahydroisochinolin]	
122	32	3.8			COc1cc2c(cc1OC)CN(CCCCn1ccc3nc(F)ccc31)CC2 [Compound 39, 2-[4-(5-Fluor-1H-pyrrolo[3,2-b]pyridin-1-yl)butyl]-6,7-dimethoxy-1,2,3,4-tetrahydroisochinolin]	
80	14	5.5			COc1cc2c(cc1OC)CN(CCCCn1ccc3c(F)nccc31)CC2 [Compound 38, 2-[4-(4-Fluor-1H-pyrrolo[3,2-c]pyridin-1-yl)butyl]-6,7-dimethoxy-1,2,3,4-tetrahydroisochinolin]	
